# Reference: ChEMBL document CHEMBL1130936, “Design, synthesis, and biological activity of novel purine and bicyclic pyrimidine factor Xa inhibitors” (Bioorg Med Chem Lett, 1998)
# How the values were obtained:
# Prothrombin = Prothrombin (Homo sapiens, UniProt P00734); assay: Compound was tested for inhibitory activity against human thrombin
# Serine protease 1 = biological target: T1, Serine protease 1 (Bos taurus, UniProt P00760); assay: Compound was tested for inhibitory activity against bovine trypsin
# T1 sequence (P00760 whole entry): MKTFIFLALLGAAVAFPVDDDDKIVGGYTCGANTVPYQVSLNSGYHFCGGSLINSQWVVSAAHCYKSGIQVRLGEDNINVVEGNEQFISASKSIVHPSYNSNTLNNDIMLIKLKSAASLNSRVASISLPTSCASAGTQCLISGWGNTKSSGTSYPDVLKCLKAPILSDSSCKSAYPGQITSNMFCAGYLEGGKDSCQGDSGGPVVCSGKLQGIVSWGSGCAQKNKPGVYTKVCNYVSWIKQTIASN
# Coagulation factor X = Coagulation factor X (Homo sapiens, UniProt P00742); assay: Compound was tested for inhibitory activity against human Coagulation factor X
# Chain of Coagulation factor X (P00742 41-179 limits assumed): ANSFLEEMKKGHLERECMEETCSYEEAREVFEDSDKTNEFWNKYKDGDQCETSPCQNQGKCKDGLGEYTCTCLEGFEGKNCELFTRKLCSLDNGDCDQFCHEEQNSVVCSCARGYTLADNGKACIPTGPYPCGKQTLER
# Chain of Coagulation factor X (P00742 235-488 limits assumed): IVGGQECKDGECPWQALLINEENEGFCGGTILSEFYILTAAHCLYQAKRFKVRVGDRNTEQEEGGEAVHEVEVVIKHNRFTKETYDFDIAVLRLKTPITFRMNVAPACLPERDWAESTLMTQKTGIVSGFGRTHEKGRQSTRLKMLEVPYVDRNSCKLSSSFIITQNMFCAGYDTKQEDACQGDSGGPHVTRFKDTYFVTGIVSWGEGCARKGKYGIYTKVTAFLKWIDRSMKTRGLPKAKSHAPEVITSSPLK
Structure (SMILES),Ki (Prothrombin),Ki (Serine protease 1),Ki (Coagulation factor X)
Cc1c(F)c(Oc2cccc(C(=N)N)c2)nc(Oc2cccc(C(=O)N(C)C)c2)c1F,> 5 µM,,
Cc1nc2c(Oc3cc(C(=N)N)ccc3O)nc(Oc3cccc(C(=O)N(C)C)c3)nc2n1Cc1ccccc1,0.71 µM,0.15 µM,0.00042 µM
N=C(N)c1ccc(/C=C2/CCCC/C(=C/c3ccc(C(=N)N)cc3)C2=O)cc1,0.43 µM,0.03 µM,
Cc1nc2c(Oc3cccc(C(=O)N(C)C)c3)nc(Oc3cc(C(=N)N)ccc3O)nc2n1Cc1ccccc1,1.3 µM,0.76 µM,0.01 µM

# Results, then the compound that gave them:
Ki (Prothrombin),Ki (Serine protease 1),Ki (Coagulation factor X),Structure (SMILES)
> 5 µM,2.2 µM,0.081 µM,CN(C)C(=O)c1cccc(Oc2nc(Oc3cc(C(=N)N)ccc3O)nc3c2NC(=O)CN3)c1
1 µM,0.32 µM,0.019 µM,CN(C)C(=O)c1cccc(Oc2nc3c(c(Oc4cc(C(=N)N)ccc4O)n2)NC(=O)CN3)c1
> 5 µM,> 5 µM,0.106 µM,CN(C)C(=O)c1cccc(Oc2nc(Oc3cc(C(=N)N)ccc3O)nc3c2NC(=O)CO3)c1
